Reference: PubChem BioAssay (NCI)
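48-hour exposure; five concentrations; linearly interpolated endpoints. The concentration for 50% growth inhibition is given as GI50. At the TGI there is no net growth.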

What was measured:
Test in all cases: inhibition of tumour cell growth, NCI panel, 48 h
HCT-15 colon = test system: HCT-15 colon
KM12 colon = test system: KM12 colon
MOLT-4 leukemia = test system: MOLT-4 leukemia
NCI-H226 lung = test system: NCI-H226 lung
NCI-H23 lung = test system: NCI-H23 lung
NCI-H522 lung = test system: NCI-H522 lung
RPMI-8226 leukemia = test system: RPMI-8226 leukemia
SN12C renal = test system: SN12C renal
TK-10 renal = test system: TK-10 renal
UACC-257 melanoma = test system: UACC-257 melanoma

SMILES	GI50 (HCT-15 colon) [µM]	TGI (HCT-15 colon) [µM]	GI50 (KM12 colon) [µM]	TGI (KM12 colon) [µM]	GI50 (MOLT-4 leukemia) [µM]	TGI (MOLT-4 leukemia) [µM]	GI50 (NCI-H226 lung) [µM]	TGI (NCI-H226 lung) [µM]	GI50 (NCI-H23 lung) [µM]	TGI (NCI-H23 lung) [µM]	GI50 (NCI-H522 lung) [µM]	TGI (NCI-H522 lung) [µM]	GI50 (RPMI-8226 leukemia) [µM]	TGI (RPMI-8226 leukemia) [µM]	GI50 (SN12C renal) [µM]	TGI (SN12C renal) [µM]	GI50 (TK-10 renal) [µM]	TGI (TK-10 renal) [µM]	GI50 (UACC-257 melanoma) [µM]	TGI (UACC-257 melanoma) [µM]
O=C1Nc2ccc(CN3CCOC3=O)cc2/C1=C/c1cc(CN2CCOCC2)c[nH]1	29.4	> 100	4.08	> 100	28.5	78.7	28.1	> 100	32.5	> 100	36.1	> 100	19.2	53.7	45.4	> 100	65.5	> 100	52	> 100
CC(C)C[C@H]1C(=O)N2CCC[C@H]2[C@]2(O)O[C@](NC(=O)[C@@H]3C=C4c5cccc6[nH]c(Br)c(c56)C[C@H]4N(C)C3)(C(C)C)C(=O)N12	–	> 100	–	> 100	–	> 100	–	> 100	–	–	–	> 100	–	> 100	–	> 100	–	> 100	–	> 100
C[CH2][Ge]([CH2]C)([CH2]C)[O]C(=O)C([O][Ge]([CH2]C)([CH2]C)[CH2]C)c1ccccc1 (stereo not given)	14	30	11.9	26.1	23.8	> 100	25.7	88	10.1	44.3	11	27.3	11.2	> 100	18.2	82.8	47.6	> 100	15.2	58.4
CC(C)(C)c1cc(-c2c3nc(c(-c4cc(C(C)(C)C)cc(C(C)(C)C)c4)c4ccc([nH]4)c(-c4cc(C(C)(C)C)cc(C(C)(C)C)c4)c4nc(c(-c5cc(C(C)(C)C)cc(C(C)(C)C)c5)c5ccc2[nH]5)C=C4)C=C3)cc(C(C)(C)C)c1	–	> 100	–	> 100	–	> 100	–	> 100	–	> 100	–	> 100	–	> 100	–	> 100	–	> 100	–	> 100
CCOC(=O)C1=C(C)N(NC(=O)OC)C2(N)N(NC(=O)OC)C(C)=C(C(=O)OCC)C12C#N (stereo not given)	–	> 100	–	> 100	–	> 100	–	> 100	–	–	–	> 100	–	> 100	–	> 100	–	–	–	> 100
Cc1ccccc1NC(=O)C(=O)CC(=O)C1CCOC1=O (stereo not given)	–	> 100	–	> 100	–	–	–	> 100	–	> 100	–	> 100	–	> 100	–	> 100	–	> 100	–	> 100
O=C(c1ccccc1)c1ccc(O)c2ncccc12	1.66	25.9	3.25	16.9	3.16	> 100	9.45	41.8	4.85	19.6	2.51	8.3	4.25	39.1	2.46	14.8	6.99	> 100	5.75	> 100
C=C1C(=O)O[C@H]2[C@H]1CC/C(COC(=O)C(=O)c1c[nH]c3ccc(Cl)cc13)=C\CC[C@@]1(C)O[C@@H]21	0.382	1.63	3.21	11.6	0.778	5.47	1.74	3.31	1.65	3.31	1.53	3.24	0.422	3.29	1.84	4.17	1.73	3.2	2	4.13
NC1=NCC(c2ccccn2)C1c1ccc(F)cc1 (stereo not given)	–	–	–	> 100	–	> 100	–	> 100	–	> 100	–	> 100	–	> 100	–	> 100	–	> 100	–	> 100
C/C(=C1/N=C(c2ccccc2)OC1=O)c1ccccc1	–	> 100	–	> 100	–	> 100	–	> 100	–	> 100	–	> 100	–	68.4	–	> 100	–	> 100	–	> 100
CCCC(CCC)Oc1ccc(CCCC2=C(O)c3ccccc3C(=O)C2=O)cc1	3.76	15	6.18	22.3	3.25	11.5	4.24	20.8	5.94	21.1	5.75	22.2	2.9	7.49	6.79	22.5	8.03	21.3	7.07	43.1
Cc1cc(S(=O)(=O)Nc2nc3ccccc3[nH]2)c(SCc2ccccc2)cc1Cl	> 100	> 100	40.4	> 100	36.4	85.6	43.8	> 100	54.9	> 100	> 100	> 100	28.9	> 100	29.6	> 100	38	> 100	> 100	> 100
Cc1cccc2c(N=Nc3ccccc3[N+](=O)[O-])c(O)[nH]c12	–	97.7	–	> 58.6	–	> 100	–	> 39.7	–	23.4	–	2.85	–	> 89.3	–	26.8	–	16.9	–	> 53.5
CNC1=CC(=O)C2=C(C1=O)C1C3=C(C(=O)C(Br)=C(OC)C3=O)C2c2ccccc21 (stereo not given)	2.06	10.5	1.87	5.93	1.12	> 50	6.66	14.7	4.44	16	1.3	2.98	2.27	> 50	1.05	2.07	7.56	26.2	4.58	> 50
O=C([CH-]C(=O)c1ccccc1)c1ccccc1.[CH3-].[CH3-].[CH3-].[Sn+4]	5.51	27.3	18.1	> 100	3.18	13.6	6.62	65.7	18.4	63.4	11.8	24.2	4.99	26.2	17.3	> 100	31.7	84.9	22.2	60.8
